The values that follow come from patent publication US20230414826A1, “FIBRIN HYDROGELS” (Mayo Foundation for Medical Education and Research, priority 2020, published 2023).

The target of this assay is T1, fibrinogen (Evicel) (Homo sapiens, UniProt P02671+P02675+P02679).
T1 construct: purchased Ethicon (Evicel Biologically Active Component 2)
T1 sequence (P02671 20-629 limits assumed): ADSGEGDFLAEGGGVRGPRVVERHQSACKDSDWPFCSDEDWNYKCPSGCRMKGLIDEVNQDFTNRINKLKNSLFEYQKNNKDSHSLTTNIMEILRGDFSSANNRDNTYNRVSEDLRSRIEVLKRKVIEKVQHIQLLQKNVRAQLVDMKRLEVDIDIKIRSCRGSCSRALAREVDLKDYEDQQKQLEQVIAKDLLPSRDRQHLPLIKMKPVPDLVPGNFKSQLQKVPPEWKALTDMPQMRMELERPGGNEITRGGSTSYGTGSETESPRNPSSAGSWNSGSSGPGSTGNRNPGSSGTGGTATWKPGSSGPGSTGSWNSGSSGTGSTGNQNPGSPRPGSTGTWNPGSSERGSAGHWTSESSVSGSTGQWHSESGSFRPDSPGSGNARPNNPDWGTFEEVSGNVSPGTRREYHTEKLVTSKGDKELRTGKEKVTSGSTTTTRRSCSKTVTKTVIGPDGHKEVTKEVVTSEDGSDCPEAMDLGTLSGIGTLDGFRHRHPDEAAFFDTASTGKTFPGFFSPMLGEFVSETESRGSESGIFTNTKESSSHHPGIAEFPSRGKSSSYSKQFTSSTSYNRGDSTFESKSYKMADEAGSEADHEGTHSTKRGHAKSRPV
T1 sequence (P02675 31-491): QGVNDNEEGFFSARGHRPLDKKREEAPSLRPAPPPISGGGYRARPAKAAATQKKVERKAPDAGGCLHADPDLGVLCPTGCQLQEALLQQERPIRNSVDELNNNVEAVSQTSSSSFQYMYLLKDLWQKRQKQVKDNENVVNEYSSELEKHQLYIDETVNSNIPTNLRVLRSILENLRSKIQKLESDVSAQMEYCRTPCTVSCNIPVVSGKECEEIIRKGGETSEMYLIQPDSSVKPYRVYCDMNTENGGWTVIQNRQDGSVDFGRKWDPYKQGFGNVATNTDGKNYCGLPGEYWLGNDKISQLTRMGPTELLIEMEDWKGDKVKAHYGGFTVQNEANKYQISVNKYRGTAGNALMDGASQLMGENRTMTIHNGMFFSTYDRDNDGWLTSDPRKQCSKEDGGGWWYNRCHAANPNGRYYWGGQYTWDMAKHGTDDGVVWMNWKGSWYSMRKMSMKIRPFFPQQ
T1 sequence (P02679 27-433 limits assumed): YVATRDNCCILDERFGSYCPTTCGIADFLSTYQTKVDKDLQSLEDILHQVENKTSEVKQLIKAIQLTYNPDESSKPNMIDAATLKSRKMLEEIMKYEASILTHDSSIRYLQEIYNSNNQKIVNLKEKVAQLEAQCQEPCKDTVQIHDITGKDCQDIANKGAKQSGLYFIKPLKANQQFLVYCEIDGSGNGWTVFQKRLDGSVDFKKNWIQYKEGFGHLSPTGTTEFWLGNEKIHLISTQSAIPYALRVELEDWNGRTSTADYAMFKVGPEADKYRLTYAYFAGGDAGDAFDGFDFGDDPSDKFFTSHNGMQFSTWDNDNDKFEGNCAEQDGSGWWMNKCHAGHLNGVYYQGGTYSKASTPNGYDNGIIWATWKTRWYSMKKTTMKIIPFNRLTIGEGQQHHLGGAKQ
The assay can be described thus: Fibrinogen clotting assay with coagulation analyzer (Clauss method), tissue glue fibrinogen. Format: biochemical. The following applies: for gelation time (average clotting time): 4.58 mM additive in PBS, fixed 1:20 dilution of fibrinogen (Evicel), n=10; for Effect on Clotting Time: screen, multiple concentrations up to 4.58 mM.

As to `O=C([O-])c1ccccc1-c1c2ccc(=O)cc-2oc2cc([O-])ccc12.[Na+].[Na+]` [SF, Sodium Fluorescein, reference compound], the “gelation time (average clotting time)” value worked out at 18.5 ± 2.6 s and the “Effect on Clotting Time” value is “No effect”.

As for “Brilliant Blue R [BB, reference compound]”, the “Effect on Clotting Time” value was “caused protein precipitation”. Further, the “Effect on Clotting Time” value (listed as Brilliant Blue R (BB)) is on record as “Precip”.

For `CC1(C)C(/C=C/C=C/C=C/C=C2\N(CCCCS(=O)(=O)O)c3ccc4ccccc4c3C2(C)C)=[N+](CCCCS(=O)(=O)[O-])c2ccc3ccccc3c21` [ICG, Indocyanine Green, reference compound], the “Effect on Clotting Time” value was “caused protein precipitation”. In addition, the “Effect on Clotting Time” value (listed as Indocyanine Green (ICG)) is “Precip”.

Regarding `Nc1c(/N=N/c2ccc(-c3ccc(/N=N/c4cc(S(=O)(=O)O)c5ccccc5c4N)cc3)cc2)cc(S(=O)(=O)O)c2ccccc12` [CR, Congo Red, reference compound], the “Effect on Clotting Time” value is listed as “caused protein precipitation”. Moreover, the “Effect on Clotting Time” value (listed as Congo Red (CR)) was “Precip”.

As for `Cc1cc(N=Nc2ccc(C)c(N=Nc3cc(C)c(N)cc3N)c2)c(N)cc1N.Cl.Cl` [BBr, Bismarck Brown R, reference compound], the “gelation time (average clotting time)” value amounted to 18.9 ± 3.3 s and the “Effect on Clotting Time” value is listed as “No effect”.

Turning to Alcian Blue [AB, reference compound], the “Effect on Clotting Time” value was “caused protein precipitation”. Also, the “Effect on Clotting Time” value (listed as Alcian Blue (AB)) is recorded as “Precip”.
